Results on 4 molecules are retold here after US20040171015A1, “Cyp450-specific dna probes and primers, and biological applications thereof” (priority 2003, published 2004).

Like-named read-outs stand apart in the source and are kept apart here.

One data set relates to CYP 3A4. The protocol: (§1) 600 microliters of solution D (pH7; guanadium thiocyanate 4M; sodium citrate 25 mM; sarcosyl 0.5%; and 1.4 ml of beta-mercaptoethanol per 200 ml of solution D) have been added to each well so as to induce cell lysis. […] Are then successively added: 0.1 volume of sodium acetate (2M, pH4), 1 volume of water-saturated phenol and 0.2 volume of chloroform/isoamylalcohol (49/1, V/V). At each step, the suspension is vigorously vortexed, then left to cool on ice for 15-20 min, and centrifigated for 30 min at 4000 g and 4° C. An equal volume of isopropanol is added after removal of the aqueous phase.
(§2) RNA are then precipitated (1 hour at −20° C.) and centrifuged for 30 min at 4000 g and 4° C. The supernatant is removed and the pellets are re-suspended in 2.7 ml of solution D. 2.7 ml of isopropanol are then added to the suspension, and the RNA are again precipitated (1 hour at −20° C.) and centrifugated. The pellets are washed with 5.4 ml of 70% ethanol. After a final centrifugation and removal of the supernatant, the pellets are air-dried, and re-suspended in sterile water containing DEPC (DEPC 1/1000 in water, then sterilization). Total RNA contents are measured on a UV spectrophotometer.
(§3) 25 micrograms of total RNA have been placed into contact with oligo-dT (0.4 mM final of an equimolar composition of oligod(T) and of three oligosd(T) which have an A or a G or a C in 3′), and heated to 70° C. for 10 min, then incubated for 5 min on ice so as to allow oligo-dT hybridization on polyA RNA.
(§4) The labeled cDNA are then hybridized with the filters (48 hours at 42° C.). […] Filters have then been washed with SSC 2× buffer without SDS for 30 min at 42° C., and exposed overnight in a phosphorimager cassette.
(§5) For comparison purposes, Northern blots comprising 10 micrograms of total RNA have been incubated for hybridization with each cDNA probe separately. Quantifications are achieved by measuring band intensities per 18S quantity (as evaluated by ethidium bromide coloration).

In a further data set the test system is CYP 3A5. The conditions noted are these: hepatocytes. The protocol:
as §1, §2, §3, §4, §5

A further data set relates to CYP 3A7. To be noted: hepatocytes. The protocol:
as §1, §2, §3, §4, §5

In another data set the test system is CYP 14 sub-family. To be noted: human hepatocytes, 48 hours exposure; PB 1 microM, RIF 50 microM.
In a further data set the test system is CYP450. The conditions noted are these: known inducers used for validation; cited from earlier work.
A further data set has as its system CYP 1A1. As to the kind of experiment: membrane (slot blot) and Northern blot assay of CYP450 mRNA in treated human hepatocytes. The class given is cell-based. To be noted: 48 hours exposure, 3-MC 5 microM. On the procedure:
(§6) Total RNA contents are measured on a UV spectrophotometer.
(§7) The labeled cDNA thus produced are then purified.

The next data set relates to CYP 1A2. The description is as above. To be noted: 48 hours exposure, 3-MC 5 microM. In kind it is cell-based. The protocol: as §6, §7
The next data set has as its system CYP450 isoforms. As to the kind of experiment: specificity assays of the cDNA probes (hybridization on filters and Northern blot). The class given is binding, human. The conditions noted are these: 32P-labeled probe, filters with plasmidic DNA / 3′-NTR, Northern blot of total RNA. From the text: On nylon® membrane filters, the following DNA sequences were deposited:
either the sequences obtained by amplification of 50 nanograms of plasmidic DNA as described in the above example 1, followed by purification and UV spectrophotometry dosage (Power Wave X2, Biotek instruments®, St Quentin en Yvelines, France),
or plasmidic DNA (50 nanograms of linearized plasmid containing a probe inserted therein, or of empty pUC plasmid) obtained from the clones described in the above example 1 after linearization by Bam H1 (20 IU for 20 micrograms of plasmidic DNA, 1 hour at 37° C.).
The amplified sequences as well as the plasmidic ones were denatured by EDTA (final concentration of 10 mM, 10 min at 65° C.) and then by NaOH (final concentration of 0.1 M, 30 min at ambient temperature), and neutralized by SSC6× buffer, before being deposited onto a nylon® membrane (Biosupport®, Pall, Portsmouth, UK). Binding to the membrane was achieved by exposure to UV for 4 min and heating at 80° C. for 2 hours.
Three types of specificity assays have been performed:
intra-probe specificity: each cDNA probe (SEQ ID NO: 1-14) has been labeled with ^32P following Megaprime® DNA Labelling System (Amersham Pharmacia Biotech, Elancourt, France) and according to random primer polymerization. […]

Procedure for CYP 14 sub-family: RNA are then precipitated (1 hour at −20° C.) and centrifuged for 30 min at 4000 g and 4° C. The supernatant is removed and the pellets are re-suspended in 2.7 ml of solution D. 2.7 ml of isopropanol are then added to the suspension, and the RNA are again precipitated (1 hour at −20° C.) and centrifugated. The pellets are washed with 5.4 ml of 70% ethanol. After a final centrifugation and removal of the supernatant, the pellets are air-dried, and re-suspended in sterile water containing DEPC (DEPC 1/1000 in water, then sterilization). Total RNA contents are measured on a UV spectrophotometer. […]

Consider `CCC1(c2ccccc2)C(=O)NC(=O)NC1=O` [phenobarbital, Phenobarbital], for which the “change in CYP 3A4 (hybridization signal of reverse-transcribed total RNA)” value in the data set with CYP 3A4 (hepatocytes) is “strong decrease”. The “variation of CYP 3A5 (hybridization signal)” value in the data set on CYP 3A5 was “no variation”. Moreover, the “variation of CYP 3A7 (hybridization signal)” value with CYP 3A7 is on record as “no variation”. Also, the “variation of CYP 14 sub-family (hybridization signal)” value in the data set on CYP 14 sub-family was “no variation”. The CYP450 induced result with CYP450 is “CYP 3A”.
Consider `Cc1ccc2cc3c(ccc4ccccc43)c3c2c1CC3` [3-methylcholanthrene], for which, in the data set with CYP 1A1, the “change in CYP 1A1 (hybridization signal of reverse-transcribed total RNA)” value is recorded as “increase”. Besides, in the data set on CYP 1A2, the “change in CYP 1A2 (hybridization signal of reverse-transcribed total RNA)” value was “also but more weakly”. Moreover, in the data set on CYP 3A4 (human hepatocytes, 48 hours exposure, 3-MC 5 microM, PB 1 microM, RIF 50 microM), the “change in CYP 3A4 (hybridization signal of reverse-transcribed total RNA)” value is recorded as “decrease”. Besides, the CYP450 induced result with CYP450 is listed as “CYP 1A”.

B1: SEQ ID NO: 9: DNA molecule which hybridizes to CYP 2C19 (nucleic acid, listed as Homo sapiens)
DNA: TTTCACTATCTGTGATGCTTCTTCTGACCCGTCATCTCACATTTTCCCTTCCCCCAAGATCTAGTGAACATTCAGCCTCCATTAAAAAAGTTTCACTGTGCAAATATATCTGCTATTCCCCATACTCTATAATAGTTACATTGAGT
As to B1, the “hybridization specificity of the probe (cross-hybridization with other CYP450 isoforms, empty plasmid, other RNA from human hepatocytes, 3′-NTR)” value in the data set on CYP450 isoforms is reported as “may hybridize in the 3′-NTR region of CYP 2C9”.

B2: SEQ ID NO: 8: DNA molecule which hybridizes to CYP 2C9 (nucleic acid, listed as Homo sapiens)
DNA: TTTGTGTATTATAATTCAAAGGCATTTCTTTTCTGCATGTTCTAAATAAAAAGCATTATTATTTGCTG
modifications: DNA, backbone and methylation of C not given here
notes: DNA molecule which hybridizes to CYP 2C9
As for B2, the “hybridization specificity of the probe (cross-hybridization with other CYP450 isoforms, empty plasmid, other RNA from human hepatocytes, 3′-NTR)” value with CYP450 isoforms is “only hybridizes to its CYP 2C9 target”.
